Results taken from patent US9187762B2, “Compositions and methods comprising sequences having hydroxyphenylpyruvate dioxygenase (HPPD) activity” (PIONEER HI-BRED INTERNATIONAL, INC., priority 2010, dated 2015).

Key:
T0 soybean plants = experiment: Herbicide spray test of transgenic T0 HPPD soy plants using mesotrione, visual injury; format: in vivo; details: mesotrione 210 g ai/ha, eight days after treatment
Source text: (1987) Nature 327:70-73, U.S. Pat. No. 4,945,050) using a DuPont Biolistic PDS1000/He instrument. A selectable marker gene used to facilitate soybean transformation was a chimeric gene composed of the 35S promoter from Cauliflower Mosaic Virus (Odell et al. (1985) Nature 313:810-812), the hygromycin phosphotransferase gene from plasmid pJR225 (from E coli; Gritz et al. (1983) Gene 25:179-188) and the 3' region of the nopaline synthase gene from the T-DNA of the Ti plasmid of Agrobacterium tumefaciens. Another selectable marker used to facilitate soybean transformation was a chimeric gene composed of the S-adenosylmethionine synthase (SAMS) promoter (U.S. Pat. […] Pat. […] The selection agent used during the transformation process was either hygromycin or chlorsulfuron depending on the marker gene present. […] Pat. […] (1995) Genetics 139 (2), 921-939; Genbank L05363). In specific constructs, the SCP1 promoter of U.S. Pat. No. 6,072,050 was employed. Bombardments were carried out with linear DNA fragments purified away from any bacterial vector DNA. […] Bombarded soybean embryogenic suspension tissue was cultured for one week in the absence of selection agent, then placed in liquid selection medium for 6 weeks. […] Putative transgenic suspension culture tissue was maintained in selection medium for 3 weeks to obtain enough tissue for plant regeneration. Suspension tissue was matured for 4 weeks using standard procedures; matured somatic embryos were desiccated for 4-7 days and then placed on germination induction medium for 2-4 weeks. Germinated plantlets were transferred to soil in cell pack trays for 3 weeks for acclimatization. Plantlets were potted to 10-inch pots in the greenhouse for evaluation of herbicide resistance. […] Some T0 plants were not sprayed with herbicide and were all advanced to the next generation for testing.

maize HPPD = experiment: HPPD activity, coupled assay with HGD at 320 nm; substrate saturation kinetics (KM, kcat); format: biochemical; details: variants truncated to ala20 vs full length
Source text: HPPD catalyzes the conversion of 4-hydroxyphenylpyruvate (HPP) to homogentisate. See, FIG. 1. […] However, the product of the ensuing reaction in tyrosine metabolism, maleylacetoacetate, absorbs strongly at 320 nm. Furthermore, the enzyme catalyzing that reaction is also a dioxygenase having similar mechanism and buffer requirements as HPPD, making homogentisate dioxygenase (HGD) an ideal partner in a coupled assay, as shown.
The HDG gene from Pseudomonas aeruginosa (Amaya (2004) Arch Biochem Biophys 421, 135-142) was cloned into pVER7062 and electroporated into E. coli strain BL21(DE3). The enzyme was produced by methods similar to those described for HPPD. The purified enzyme has a KM for homogentisate of 23 uM and a kcat of 100/sec, properties highly suited for instantly converting the homogentisate produced by HPPD to maleylacetoacetate.
HPPD activity was measured by placing an aliquot (e.g., 6 ul) of the substrate HPP at 50-fold the desired final concentration into the wells of a low UV-absorbing assay plate. Reactions were started by adding a mixture (e.g., 294 ul) containing 25 mM Hepes, pH 7, 2 mM ascorbate, 10 uM FeSO4, 1 to 100 uM HPP, 50 nM HGD and 5 to 240 nM HPPD. Absorbance at 320 nm was monitored continuously in a plate-reading spectrophotometer (Spectramax, Molecular Devices).
The catalytic performance of wild-type HPPD and variants generated by shuffling was assessed by determining the substrate saturation parameters. The Michaelis-Menten kinetics protocol of the Spectramax software was customized for HPP concentrations ranging from 3.33 uM to 100 uM, or up to 1 mM if required. Reaction rates were measured as described above for each concentration of HPP. The software returns values of KM and Vmax using the Lineweaver-Burke transformation of the Michaelis-Menten equation.

[1] = Elite soybean control, DNA none

CS(=O)(=O)c1ccc(C(=O)C2C(=O)CCCC2=O)c([N+](=O)[O-])c1 [mesotrione]
Mean Soybean Response (% Injury) (T0 soybean plants; [1]): 88%
Soybean % Injury Response Range (T0 soybean plants; [1]): 80-95%
Mean Soybean Response (% Injury) (T0 soybean plants; Jack soybean control, DNA none): 87%
Soybean % Injury Response Range (T0 soybean plants; Jack soybean control, DNA none): 75-95%

B1: D0223961: shuffled maize HPPD variant used for chloroplast transformation (protein)
chain: MGPTPTATAAGAAVAAASAAEQAAFRLVGHRNFVRFNPRSDRFHTLAFHHVELWCADAASAAGRFSFALGAPLAARSDLSTGNSAHASLLLRSGSLSFLFTAPYAHGADAATAALPSFSAAAARRFAADHGLAVRAVALRVADAEDAFRASVAAGARPAFGPVDLGRGFRLAEVELYGDVVLRYVSYPDGAAGEPFLPGFEGVASPGAADYGLSRFDHIVGNVPELAPAAAYFAGFTGFHEFAEFTTEDVGTAESGLNSMALANNSENVLLPLNEPVHGTKRRSQIQTFLDHHGGPGVQHIALASDDVLRTLREMQARSAMGGFEFLPPPPSDYYDGVRRCAGDVLTEAQINECQELGVMVDRDDQGVLLQIFTKPVGDRPTFFLEIIQRIGCMEKDEKGQEYQKGGCGGFGKKNFGQLFKSIEDYEKSLEAKQAAAAATAQGS
modifications: HPPD variant
notes: shuffled maize HPPD variant used for chloroplast transformation
Soybean % Injury Response Range (T0 soybean plants; T0 soybean plants expressing the HPPD gene variant (per DNA construct)): 0-80%
Mean Soybean Response (% Injury) (T0 soybean plants; T0 soybean plants expressing the HPPD gene variant (per DNA construct), 0=no effect, 100=dead plant): 26%
kcat (maize HPPD): 106 ± 12.4 min⁻¹
